From ChEMBL document CHEMBL1147799, “An integrated in silico 3D model-driven discovery of a novel, potent, and selective amidosulfonamide 5-HT1A agonist (PRX-00023) for the treatment of anxiety and depression” (J Med Chem, 2006)

Columns and labels:
[1] = target: T1, 5-hydroxytryptamine receptor 1A (Homo sapiens, UniProt P08908); assay: Displacement of [3H]8-OH-DPAT from human 5HT1A receptor in HEK293 cells
T1 sequence (P08908 whole entry): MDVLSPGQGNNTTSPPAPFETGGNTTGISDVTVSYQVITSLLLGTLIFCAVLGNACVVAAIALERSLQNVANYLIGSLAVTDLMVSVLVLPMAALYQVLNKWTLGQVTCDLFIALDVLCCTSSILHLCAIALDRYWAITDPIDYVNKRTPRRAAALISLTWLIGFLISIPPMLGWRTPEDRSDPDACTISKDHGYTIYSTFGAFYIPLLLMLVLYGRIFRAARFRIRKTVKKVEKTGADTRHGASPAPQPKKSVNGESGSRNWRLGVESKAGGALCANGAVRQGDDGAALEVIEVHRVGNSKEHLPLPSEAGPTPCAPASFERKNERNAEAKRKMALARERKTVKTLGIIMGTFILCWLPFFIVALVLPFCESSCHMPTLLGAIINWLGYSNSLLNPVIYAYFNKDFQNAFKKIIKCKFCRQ

[2] = target: T2, Adrenergic receptor alpha-1 (Rattus norvegicus) (UniProt P15823+P23944+P43140); assay: Displacement of [3H]prazosin from Adrenergic alpha-1 receptor in rat cerebral cortex cells at 1 uM; format: cell-based
[3] = target: T3, Alpha-2A adrenergic receptor (Rattus norvegicus) (UniProt P22909); assay: Displacement of [3H]RX 821002 from Adrenergic alpha-2a receptor in rat cerebral cortex cells at 1 uM; format: cell-based
T3 sequence (whole entry): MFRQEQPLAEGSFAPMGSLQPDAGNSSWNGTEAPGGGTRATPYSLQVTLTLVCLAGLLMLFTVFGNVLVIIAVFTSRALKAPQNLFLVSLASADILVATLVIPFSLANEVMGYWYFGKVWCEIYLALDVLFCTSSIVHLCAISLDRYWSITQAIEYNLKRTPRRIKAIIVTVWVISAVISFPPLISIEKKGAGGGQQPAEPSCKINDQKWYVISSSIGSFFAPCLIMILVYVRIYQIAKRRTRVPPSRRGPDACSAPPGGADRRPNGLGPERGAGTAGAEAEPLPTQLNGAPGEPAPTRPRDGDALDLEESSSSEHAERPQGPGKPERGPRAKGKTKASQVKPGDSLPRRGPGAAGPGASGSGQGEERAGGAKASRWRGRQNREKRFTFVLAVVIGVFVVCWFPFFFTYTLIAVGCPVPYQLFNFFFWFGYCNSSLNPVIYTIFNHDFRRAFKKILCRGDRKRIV

[4] = Elimination half life in human; format: ADME, organism-based; settings: in vivo
D(2) dopamine receptor = D(2) dopamine receptor (Homo sapiens, UniProt P14416); assay: Binding affinity to D2 receptor by radioligand binding assay
Chain of D(2) dopamine receptor (P14416 whole entry): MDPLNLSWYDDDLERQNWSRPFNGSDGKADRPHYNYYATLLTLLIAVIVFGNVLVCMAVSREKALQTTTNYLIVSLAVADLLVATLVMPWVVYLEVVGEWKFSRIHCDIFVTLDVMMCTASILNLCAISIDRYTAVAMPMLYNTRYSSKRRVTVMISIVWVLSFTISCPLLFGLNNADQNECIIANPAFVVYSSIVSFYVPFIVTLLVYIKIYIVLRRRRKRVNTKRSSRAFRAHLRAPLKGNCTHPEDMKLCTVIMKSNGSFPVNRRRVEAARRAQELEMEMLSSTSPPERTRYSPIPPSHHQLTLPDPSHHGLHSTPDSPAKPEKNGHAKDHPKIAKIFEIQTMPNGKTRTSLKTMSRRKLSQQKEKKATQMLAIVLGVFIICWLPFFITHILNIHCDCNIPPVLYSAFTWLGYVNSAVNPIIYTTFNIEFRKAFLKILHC

[5] = target: T4, 5-hydroxytryptamine receptor 1A (Homo sapiens) (UniProt P08908); assay: Activity against 5HT1A receptor relative to 5-HT by Gi-[35S]GTP-gamma-S binding assay; format: functional
T4 sequence (whole entry): T1 sequence (P08908 whole entry)

[6] = Half life in Sprague-Dawley rat at 3 mg/kg, po; format: ADME, organism-based; design: dose 3 mg/kg, route oral; settings: in vivo
[7] = Half life in Beagle dog at 3 mg/kg, po; format: ADME, organism-based, Canis lupus familiaris; design: dose 3 mg/kg, route oral; settings: in vivo
[8] = Toxicity in po dosed Sprague-Dawley rat; format: organism-based; settings: in vivo
[9] = Toxicity in po dosed Beagle dog; format: organism-based, Canis lupus familiaris; settings: in vivo
[10] = Cmax in Beagle dog at 3 mg/kg, po; format: ADME, organism-based, Canis lupus familiaris; design: dose 3 mg/kg, route oral; settings: in vivo
[11] = Cmax in Sprague-Dawley rat at 3 mg/kg, po; format: ADME, organism-based; design: dose 3 mg/kg, route oral; settings: in vivo
[12] = target: T2, Adrenergic receptor alpha-1 (Rattus norvegicus); assay: Displacement of [3H]prazosin from Adrenergic alpha-1 receptor in rat cerebral cortex cells at 1 uM
[13] = Half life in human liver microsome at 5 uM; format: ADME; settings: liver microsomes
[14] = Half life in human liver S9 fraction at 5 uM; format: ADME
[15] = target: T1, 5-hydroxytryptamine receptor 1A; assay: Activity against 5HT1A receptor by Gi-[35S]GTP-gamma-S binding assay; format: functional
[16] = target: T5, Adrenergic receptor alpha-1 (Rattus norvegicus, UniProt P15823+P23944+P43140); assay: Displacement of [3H]prazosin from adrenergic alpha-1 receptor in rat cerebral cortex cells; format: cell-based
T5 sequence (P15823 whole entry): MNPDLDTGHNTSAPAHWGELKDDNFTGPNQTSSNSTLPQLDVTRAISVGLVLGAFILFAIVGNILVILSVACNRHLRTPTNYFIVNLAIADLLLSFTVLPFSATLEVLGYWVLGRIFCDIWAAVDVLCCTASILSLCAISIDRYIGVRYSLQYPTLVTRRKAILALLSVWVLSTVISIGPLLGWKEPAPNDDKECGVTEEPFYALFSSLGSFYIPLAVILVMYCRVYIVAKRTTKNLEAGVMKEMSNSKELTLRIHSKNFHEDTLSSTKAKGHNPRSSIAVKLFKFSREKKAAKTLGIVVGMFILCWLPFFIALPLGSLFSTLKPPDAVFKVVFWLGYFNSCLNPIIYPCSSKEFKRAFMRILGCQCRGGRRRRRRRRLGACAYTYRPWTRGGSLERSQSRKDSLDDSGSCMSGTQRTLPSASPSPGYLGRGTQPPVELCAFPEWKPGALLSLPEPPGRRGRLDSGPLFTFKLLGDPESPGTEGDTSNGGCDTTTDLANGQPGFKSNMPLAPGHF
T5 sequence (P23944 whole entry): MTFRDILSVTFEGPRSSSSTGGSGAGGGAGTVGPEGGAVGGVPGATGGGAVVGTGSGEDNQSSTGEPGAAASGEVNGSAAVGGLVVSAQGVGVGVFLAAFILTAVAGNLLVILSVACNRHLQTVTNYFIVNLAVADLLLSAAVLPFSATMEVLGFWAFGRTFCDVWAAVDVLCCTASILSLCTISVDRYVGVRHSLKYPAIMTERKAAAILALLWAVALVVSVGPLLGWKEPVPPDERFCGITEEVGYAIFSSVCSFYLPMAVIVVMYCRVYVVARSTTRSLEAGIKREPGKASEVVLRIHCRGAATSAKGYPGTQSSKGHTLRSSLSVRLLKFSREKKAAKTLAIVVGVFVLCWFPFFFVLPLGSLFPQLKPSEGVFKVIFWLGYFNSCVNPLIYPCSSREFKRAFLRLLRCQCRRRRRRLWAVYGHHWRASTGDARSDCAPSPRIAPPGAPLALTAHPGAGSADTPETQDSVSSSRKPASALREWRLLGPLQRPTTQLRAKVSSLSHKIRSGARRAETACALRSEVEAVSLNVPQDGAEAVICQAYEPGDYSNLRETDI
T5 sequence (P43140 whole entry): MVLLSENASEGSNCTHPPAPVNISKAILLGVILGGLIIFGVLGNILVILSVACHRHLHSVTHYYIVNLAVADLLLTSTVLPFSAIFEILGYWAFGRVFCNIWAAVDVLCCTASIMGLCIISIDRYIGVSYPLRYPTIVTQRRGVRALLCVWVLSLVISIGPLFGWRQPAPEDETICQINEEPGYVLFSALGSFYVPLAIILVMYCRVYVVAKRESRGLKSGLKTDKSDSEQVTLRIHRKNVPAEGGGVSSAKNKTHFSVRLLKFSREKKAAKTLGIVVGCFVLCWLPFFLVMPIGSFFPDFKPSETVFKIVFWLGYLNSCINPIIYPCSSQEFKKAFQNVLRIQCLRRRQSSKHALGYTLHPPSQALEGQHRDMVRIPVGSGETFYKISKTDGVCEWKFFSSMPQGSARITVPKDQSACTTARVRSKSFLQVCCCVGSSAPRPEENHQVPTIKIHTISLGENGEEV

[17] = Selectivity for adrenergic alpha-1 receptor over 5HT1A receptor
[18] = target: Voltage-gated inwardly rectifying potassium channel KCNH2 (Homo sapiens, UniProt Q12809); assay: Inhibition of hERG potassium channel in HEK293 cells by patch clamp assay
Chain of Voltage-gated inwardly rectifying potassium channel KCNH2 (Q12809 whole entry): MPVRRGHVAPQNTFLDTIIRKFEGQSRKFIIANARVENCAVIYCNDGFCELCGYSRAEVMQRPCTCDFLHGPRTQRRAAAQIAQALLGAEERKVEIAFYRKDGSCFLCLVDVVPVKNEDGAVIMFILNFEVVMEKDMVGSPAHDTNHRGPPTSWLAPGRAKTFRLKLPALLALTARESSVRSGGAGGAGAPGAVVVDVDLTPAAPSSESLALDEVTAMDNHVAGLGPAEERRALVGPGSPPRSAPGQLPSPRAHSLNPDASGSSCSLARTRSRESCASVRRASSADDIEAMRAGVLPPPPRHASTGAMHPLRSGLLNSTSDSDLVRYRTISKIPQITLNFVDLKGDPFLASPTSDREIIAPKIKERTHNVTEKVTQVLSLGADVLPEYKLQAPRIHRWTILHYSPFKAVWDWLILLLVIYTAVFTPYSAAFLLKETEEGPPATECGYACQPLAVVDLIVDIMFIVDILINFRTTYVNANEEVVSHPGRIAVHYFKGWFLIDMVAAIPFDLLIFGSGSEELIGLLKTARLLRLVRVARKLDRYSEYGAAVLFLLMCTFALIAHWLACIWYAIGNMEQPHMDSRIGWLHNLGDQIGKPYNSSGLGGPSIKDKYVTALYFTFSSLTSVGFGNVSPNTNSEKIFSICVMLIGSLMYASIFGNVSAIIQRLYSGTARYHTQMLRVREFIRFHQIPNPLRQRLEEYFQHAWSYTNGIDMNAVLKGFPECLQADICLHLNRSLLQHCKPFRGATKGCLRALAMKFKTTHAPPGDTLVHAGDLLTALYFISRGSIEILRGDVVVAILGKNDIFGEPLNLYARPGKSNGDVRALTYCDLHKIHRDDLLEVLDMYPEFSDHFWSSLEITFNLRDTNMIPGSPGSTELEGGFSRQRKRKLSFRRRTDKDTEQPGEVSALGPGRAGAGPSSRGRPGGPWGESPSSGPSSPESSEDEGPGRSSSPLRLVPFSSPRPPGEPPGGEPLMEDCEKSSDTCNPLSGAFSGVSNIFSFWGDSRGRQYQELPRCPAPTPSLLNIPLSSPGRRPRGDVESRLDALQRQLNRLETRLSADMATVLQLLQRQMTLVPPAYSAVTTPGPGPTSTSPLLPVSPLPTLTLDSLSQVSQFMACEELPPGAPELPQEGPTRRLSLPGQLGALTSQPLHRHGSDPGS

hERG (KCNH2) = hERG (KCNH2) (Homo sapiens, UniProt Q12809); assay: Inhibition of hERG potassium channel in HEK293 cells by patch clamp assay at 1 uM; settings: HEK293 cells that express hERG
Chain of hERG (KCNH2) (Q12809 whole entry): as above

[19] = Oral bioavailability in Sprague-Dawley rat at 3 mg/kg, po and 1 mg/kg, iv; format: ADME, organism-based; settings: in vivo

Compound | Activity [2] [%] | Activity [3] [%] | further results
CCC(=O)Nc1cccc(N2CCN(CCCCNS(=O)(=O)c3ccc(C)cc3)CC2)c1 | 0 | 31 | Ki [1]: 426 nM
CC(=O)Nc1cccc(N2CCN(CCCCNS(=O)(=O)C(C)C)CC2)c1 | < 10 | < 10 | 
Cc1ccc(S(=O)(=O)NCCCCN2CCN(c3ccccc3)CC2)cc1 | 98 | 90 | 
CC(=O)Nc1cccc(N2CCN(CCCCNS(=O)(=O)c3ccc(F)cc3)CC2)c1 | 39 | < 10 | 
Cc1ccc(S(=O)(=O)NCCCCN2CCN(c3cccc(NS(C)(=O)=O)c3)CC2)cc1 | 51 | 21 | 
Cc1ccc(S(=O)(=O)NCCCCN2CCN(c3cccc(NC(=O)C4CC4)c3)CC2)cc1 | < 10 | 10 | Ki [1]: 22 nM
CCCC(=O)Nc1cccc(N2CCN(CCCCNS(=O)(=O)c3ccc(C)cc3)CC2)c1 | 12 | 12 | 
CC1(C)CC(=O)N(CCCCN2CCN(c3ncccn3)CC2)C(=O)C1 [GEPIRONE] |  |  | half-life [4]: 6 h; Ki (D(2) dopamine receptor): 58 nM; Activity [5]: 80%
O=C1CC2(CCCC2)CC(=O)N1CCCCN1CCN(c2ncccn2)CC1 [BUSPIRONE] |  |  | half-life [6]: 1 h; half-life [4]: 2 h; half-life [7]: 1 h; LD50 [8]: 196 mg/kg; LD50 [9]: 586 mg/kg; Activity [5]: 50%; Cmax [10]: 146 ng/mL; Cmax [11]: 4 ng/mL
CC(=O)Nc1cccc(N2CCN(CC3CCN(S(=O)(=O)C(C)C)CC3)CC2)c1 | < 10 | < 10 | 
Cc1ccc(S(=O)(=O)NCCCCN2CCN(c3cccc(NC(=O)C(C)(C)C)c3)CC2)cc1 | 0 | 11 | 
Cc1ccc(S(=O)(=O)NCCCCN2CCN(c3cccc(NS(=O)(=O)C(C)C)c3)CC2)cc1 | 47 | 12 | Ki [1]: 47 nM
CC(=O)Nc1cccc(N2CCN(CC3CCN(S(=O)(=O)c4ccc(F)cc4)CC3)CC2)c1 | 49 | < 10 | 
O=C(Nc1cccc(N2CCN(CCCCNS(=O)(=O)CC3CCCCC3)CC2)c1)C1CC1 | 10 | < 10 | 
CCS(=O)(=O)Nc1cccc(N2CCN(CCCCNS(=O)(=O)c3ccc(C)cc3)CC2)c1 | 47 | 14 | 
CC(=O)Nc1cccc(N2CCN(CCCCNS(=O)(=O)C3CCCCC3)CC2)c1 | < 10 | < 10 | 
CC(=O)Nc1cccc(N2CCN(CCCCN(C)S(=O)(=O)CC3CCCCC3)CC2)c1 | 37 | 47 | Activity [12]: 37%; half-life at 5 µM [13]: 0.2 h; half-life at 5 µM [14]: 1.08 h; EC50 [15]: 3.6 nM
O=C1CCC(=O)N1C[C@H]1CC[C@H]2CN(c3ncccn3)CCN2C1 [SUNEPITRON] |  |  | half-life [4]: 2 h; Ki [1]: 92 nM; Ki [16]: 35 nM; Ratio Ki [17]: 0.4
CC(=O)Nc1cccc(N2CCN(CCCCN(C)S(=O)(=O)CC(C)C)CC2)c1 | 27 | 16 | IC50 [18]: 2200 nM; inhibition at 1 µM (hERG (KCNH2)): 31%; Activity [12]: 27%; Ki [1]: 9.7 nM; half-life at 5 µM [13]: > 0.75 h; EC50 [15]: 32 nM
CC(=O)Nc1cccc(N2CCN(CC3CCN(S(=O)(=O)CC4CCCCC4)CC3)CC2)c1 | < 10 | 13 | half-life [6]: 0.75 h
Cc1ccc(S(=O)(=O)NCCCCN2CCN(c3cccc(NC(=O)C(C)C)c3)CC2)cc1 | 15 | < 10 | Ki [1]: 78 nM
CC(=O)Nc1cccc(N2CCN(CCCCNS(=O)(=O)c3ccc(C)cc3)CC2)c1 | 22 | 43 | half-life [6]: 3.3 h; bioavailability [19]: 15%; Ki [16]: > 3500 nM; half-life at 5 µM [13]: 0.65 h
